{"source": "paper PMC10924921", "about": "“Mi-2β promotes immune evasion in melanoma by activating EZH2 methylation” (Nature Communications, 2024)", "assay_in_all_cases": "biochemical", "parameters_in_all_cases": "KINOMEscan active-site competition binding panel (468 kinase assays), per cent of control at 1000 nM", "settings_in_all_cases": "KINOMEscan per cent of control (binding competition); read-out: Percent Control", "key": {"LATS2": {"molecular_target": "LATS2 (Homo sapiens, UniProt Q9NRM7)", "source_text": "(§1) Figure S7 / Percent Control"}, "FAK": {"molecular_target": "T1, FAK (Homo sapiens, UniProt Q05397)", "T1 construct": "gene PTK2", "source_text": "as §1"}, "BRSK2": {"molecular_target": "BRSK2 (Homo sapiens, UniProt Q8IWQ3)", "sequence (Q8IWQ3 whole entry)": "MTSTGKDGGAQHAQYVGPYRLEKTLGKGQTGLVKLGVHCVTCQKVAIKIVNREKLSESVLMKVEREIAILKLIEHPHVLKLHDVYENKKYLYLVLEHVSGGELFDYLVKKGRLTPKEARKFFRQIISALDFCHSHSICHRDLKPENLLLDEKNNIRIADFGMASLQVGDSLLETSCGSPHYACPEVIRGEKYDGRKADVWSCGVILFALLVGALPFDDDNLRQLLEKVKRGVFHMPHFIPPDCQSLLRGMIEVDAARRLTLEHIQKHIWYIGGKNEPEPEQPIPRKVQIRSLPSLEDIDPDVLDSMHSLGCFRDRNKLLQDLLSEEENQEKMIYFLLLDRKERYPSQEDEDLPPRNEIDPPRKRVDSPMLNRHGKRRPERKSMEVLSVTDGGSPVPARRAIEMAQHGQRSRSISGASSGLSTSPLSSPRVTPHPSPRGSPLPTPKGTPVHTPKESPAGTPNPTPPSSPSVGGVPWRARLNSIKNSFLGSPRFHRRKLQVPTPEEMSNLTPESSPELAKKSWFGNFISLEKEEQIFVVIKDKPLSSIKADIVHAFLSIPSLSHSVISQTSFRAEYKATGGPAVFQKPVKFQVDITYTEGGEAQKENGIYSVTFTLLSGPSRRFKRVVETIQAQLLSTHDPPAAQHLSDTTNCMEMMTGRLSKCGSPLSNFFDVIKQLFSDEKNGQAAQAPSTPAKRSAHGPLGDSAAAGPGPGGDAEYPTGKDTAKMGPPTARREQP", "source_text": "as §1"}, "PYK2": {"molecular_target": "T2, PYK2 (Homo sapiens, UniProt Q14289)", "T2 construct": "gene PTK2B", "source_text": "as §1"}, "CSNK2A1": {"molecular_target": "CSNK2A1 (Homo sapiens, UniProt P68400)", "sequence (P68400 whole entry)": "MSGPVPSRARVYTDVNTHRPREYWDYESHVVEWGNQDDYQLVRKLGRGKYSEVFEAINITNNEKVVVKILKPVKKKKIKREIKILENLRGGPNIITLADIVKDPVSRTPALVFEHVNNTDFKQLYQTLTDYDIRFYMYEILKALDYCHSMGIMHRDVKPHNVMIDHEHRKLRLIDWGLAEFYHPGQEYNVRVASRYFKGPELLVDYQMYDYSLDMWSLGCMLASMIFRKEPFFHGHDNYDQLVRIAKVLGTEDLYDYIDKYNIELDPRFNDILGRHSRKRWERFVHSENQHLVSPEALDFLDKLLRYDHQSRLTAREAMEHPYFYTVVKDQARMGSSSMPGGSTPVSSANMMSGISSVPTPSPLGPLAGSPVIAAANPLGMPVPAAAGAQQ", "source_text": "as §1"}, "ADCK4": {"molecular_target": "T3, ADCK4 (Homo sapiens, UniProt Q96D53)", "T3 construct": "gene COQ8B", "source_text": "as §1"}, "ALK(L1196M)": {"molecular_target": "ALK(L1196M) (Homo sapiens, UniProt Q9UM73, L1196M)", "source_text": "as §1"}, "MYLK": {"molecular_target": "MYLK (Homo sapiens, UniProt Q15746)", "sequence (Q15746 whole entry)": "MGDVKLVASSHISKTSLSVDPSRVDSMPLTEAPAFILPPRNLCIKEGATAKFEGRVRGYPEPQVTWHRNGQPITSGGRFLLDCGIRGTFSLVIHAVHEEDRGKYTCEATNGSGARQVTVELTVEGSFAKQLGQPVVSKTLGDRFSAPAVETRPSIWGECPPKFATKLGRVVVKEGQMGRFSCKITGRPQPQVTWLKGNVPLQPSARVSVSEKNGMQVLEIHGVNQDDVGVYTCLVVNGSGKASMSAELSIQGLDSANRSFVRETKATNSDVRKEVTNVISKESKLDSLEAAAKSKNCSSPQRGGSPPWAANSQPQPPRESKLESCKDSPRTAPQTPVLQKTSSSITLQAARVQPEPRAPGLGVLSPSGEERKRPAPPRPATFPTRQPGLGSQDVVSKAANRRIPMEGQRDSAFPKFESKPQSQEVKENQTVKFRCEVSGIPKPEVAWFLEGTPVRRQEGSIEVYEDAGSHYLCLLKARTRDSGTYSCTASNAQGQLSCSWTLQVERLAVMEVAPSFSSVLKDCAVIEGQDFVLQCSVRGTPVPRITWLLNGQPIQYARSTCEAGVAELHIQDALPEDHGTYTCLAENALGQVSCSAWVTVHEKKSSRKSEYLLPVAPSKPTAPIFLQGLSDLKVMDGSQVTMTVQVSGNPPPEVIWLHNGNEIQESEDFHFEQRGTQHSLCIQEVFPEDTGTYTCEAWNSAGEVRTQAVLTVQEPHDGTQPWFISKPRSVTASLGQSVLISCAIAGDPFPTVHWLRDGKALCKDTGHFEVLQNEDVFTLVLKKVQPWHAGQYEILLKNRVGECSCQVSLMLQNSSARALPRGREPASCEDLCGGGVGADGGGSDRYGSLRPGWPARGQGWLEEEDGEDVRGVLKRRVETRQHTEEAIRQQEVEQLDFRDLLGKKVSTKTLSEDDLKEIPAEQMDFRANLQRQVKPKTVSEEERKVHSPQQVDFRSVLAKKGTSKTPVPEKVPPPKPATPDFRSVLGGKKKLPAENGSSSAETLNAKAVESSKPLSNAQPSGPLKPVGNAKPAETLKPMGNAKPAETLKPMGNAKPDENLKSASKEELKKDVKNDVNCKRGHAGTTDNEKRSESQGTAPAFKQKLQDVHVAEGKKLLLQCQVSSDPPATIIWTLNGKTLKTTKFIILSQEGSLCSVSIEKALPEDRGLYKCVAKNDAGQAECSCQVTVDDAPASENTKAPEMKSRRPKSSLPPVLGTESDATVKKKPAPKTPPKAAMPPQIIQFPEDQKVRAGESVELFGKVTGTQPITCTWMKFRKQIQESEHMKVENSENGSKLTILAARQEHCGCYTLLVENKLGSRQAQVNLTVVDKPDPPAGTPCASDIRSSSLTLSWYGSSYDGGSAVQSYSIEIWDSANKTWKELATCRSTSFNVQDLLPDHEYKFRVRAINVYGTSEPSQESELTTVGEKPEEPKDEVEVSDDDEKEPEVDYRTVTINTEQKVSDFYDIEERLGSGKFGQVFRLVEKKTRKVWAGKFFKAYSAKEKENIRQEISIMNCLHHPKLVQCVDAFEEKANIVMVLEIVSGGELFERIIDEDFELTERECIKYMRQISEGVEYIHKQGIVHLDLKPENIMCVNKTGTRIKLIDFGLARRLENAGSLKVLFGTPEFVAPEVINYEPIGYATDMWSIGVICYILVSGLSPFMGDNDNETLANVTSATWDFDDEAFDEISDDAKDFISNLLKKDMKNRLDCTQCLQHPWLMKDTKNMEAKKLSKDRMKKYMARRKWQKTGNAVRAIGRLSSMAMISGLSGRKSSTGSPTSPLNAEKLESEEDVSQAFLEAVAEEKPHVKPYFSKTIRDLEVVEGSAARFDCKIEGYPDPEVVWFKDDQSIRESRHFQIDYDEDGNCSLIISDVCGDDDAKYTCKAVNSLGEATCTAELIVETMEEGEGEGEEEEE", "source_text": "as §1"}, "CSK": {"molecular_target": "CSK (Homo sapiens, UniProt P41240)", "source_text": "as §1"}, "TRKA": {"molecular_target": "T4, TRKA (Homo sapiens, UniProt P04629)", "T4 construct": "gene NTRK1", "source_text": "as §1"}, "SGK3": {"molecular_target": "SGK3 (Homo sapiens, UniProt Q96BR1)", "source_text": "as §1"}, "WNK1": {"molecular_target": "WNK1 (Homo sapiens, UniProt Q9H4A3)", "source_text": "as §1"}, "ROCK2": {"molecular_target": "ROCK2 (Homo sapiens, UniProt O75116)", "sequence (O75116 whole entry)": "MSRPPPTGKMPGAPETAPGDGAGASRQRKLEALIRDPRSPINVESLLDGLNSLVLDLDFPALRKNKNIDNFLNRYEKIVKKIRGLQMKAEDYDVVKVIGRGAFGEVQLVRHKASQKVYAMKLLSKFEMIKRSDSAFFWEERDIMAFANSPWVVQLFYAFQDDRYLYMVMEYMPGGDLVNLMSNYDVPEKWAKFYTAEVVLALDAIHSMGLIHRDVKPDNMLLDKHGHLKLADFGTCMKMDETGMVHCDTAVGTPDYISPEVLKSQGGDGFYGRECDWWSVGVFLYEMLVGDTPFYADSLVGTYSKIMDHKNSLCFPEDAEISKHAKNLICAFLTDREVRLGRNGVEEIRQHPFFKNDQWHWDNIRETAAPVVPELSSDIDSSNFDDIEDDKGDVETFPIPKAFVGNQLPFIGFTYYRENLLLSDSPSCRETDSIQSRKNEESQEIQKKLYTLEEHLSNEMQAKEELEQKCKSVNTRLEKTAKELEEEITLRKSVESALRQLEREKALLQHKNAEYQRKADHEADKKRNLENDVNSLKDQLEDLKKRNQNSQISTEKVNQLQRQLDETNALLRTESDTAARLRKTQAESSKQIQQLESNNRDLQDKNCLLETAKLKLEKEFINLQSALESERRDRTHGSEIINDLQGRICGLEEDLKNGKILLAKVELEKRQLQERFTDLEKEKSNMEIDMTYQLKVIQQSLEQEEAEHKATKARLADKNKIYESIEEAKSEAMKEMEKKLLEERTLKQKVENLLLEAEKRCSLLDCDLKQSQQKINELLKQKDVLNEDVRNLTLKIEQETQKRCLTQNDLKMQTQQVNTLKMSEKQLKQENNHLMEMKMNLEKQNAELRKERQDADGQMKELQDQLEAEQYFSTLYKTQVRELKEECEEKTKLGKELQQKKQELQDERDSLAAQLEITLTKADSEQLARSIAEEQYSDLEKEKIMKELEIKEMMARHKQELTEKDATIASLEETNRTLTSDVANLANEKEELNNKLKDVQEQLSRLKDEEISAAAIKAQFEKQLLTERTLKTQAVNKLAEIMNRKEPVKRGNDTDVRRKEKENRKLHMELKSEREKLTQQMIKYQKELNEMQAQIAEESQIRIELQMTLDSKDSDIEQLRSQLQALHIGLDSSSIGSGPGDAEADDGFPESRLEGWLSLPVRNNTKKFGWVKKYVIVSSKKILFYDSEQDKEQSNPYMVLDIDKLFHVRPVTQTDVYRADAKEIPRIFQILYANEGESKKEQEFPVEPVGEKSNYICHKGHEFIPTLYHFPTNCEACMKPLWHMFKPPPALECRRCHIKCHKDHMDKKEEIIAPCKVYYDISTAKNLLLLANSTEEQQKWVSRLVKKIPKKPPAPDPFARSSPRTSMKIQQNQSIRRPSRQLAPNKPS", "source_text": "as §1"}, "FRK": {"molecular_target": "FRK (Homo sapiens, UniProt P42685)", "source_text": "as §1"}, "BLK": {"molecular_target": "BLK (Homo sapiens, UniProt P51451)", "source_text": "as §1"}, "WNK2": {"molecular_target": "WNK2 (Homo sapiens, UniProt Q9Y3S1)", "source_text": "as §1"}, "[1]": {"molecular_target": "T5, TYK2(JH2domain-pseudokinase) (Homo sapiens, UniProt P29597)", "T5 construct": "JH2domain-pseudokinase", "source_text": "as §1"}, "SLK": {"molecular_target": "SLK (Homo sapiens, UniProt Q9H2G2)", "source_text": "as §1"}, "CAMKK2": {"molecular_target": "CAMKK2 (Homo sapiens, UniProt Q96RR4)", "source_text": "as §1"}, "DYRK2": {"molecular_target": "DYRK2 (Homo sapiens, UniProt Q92630)", "sequence (Q92630 whole entry)": "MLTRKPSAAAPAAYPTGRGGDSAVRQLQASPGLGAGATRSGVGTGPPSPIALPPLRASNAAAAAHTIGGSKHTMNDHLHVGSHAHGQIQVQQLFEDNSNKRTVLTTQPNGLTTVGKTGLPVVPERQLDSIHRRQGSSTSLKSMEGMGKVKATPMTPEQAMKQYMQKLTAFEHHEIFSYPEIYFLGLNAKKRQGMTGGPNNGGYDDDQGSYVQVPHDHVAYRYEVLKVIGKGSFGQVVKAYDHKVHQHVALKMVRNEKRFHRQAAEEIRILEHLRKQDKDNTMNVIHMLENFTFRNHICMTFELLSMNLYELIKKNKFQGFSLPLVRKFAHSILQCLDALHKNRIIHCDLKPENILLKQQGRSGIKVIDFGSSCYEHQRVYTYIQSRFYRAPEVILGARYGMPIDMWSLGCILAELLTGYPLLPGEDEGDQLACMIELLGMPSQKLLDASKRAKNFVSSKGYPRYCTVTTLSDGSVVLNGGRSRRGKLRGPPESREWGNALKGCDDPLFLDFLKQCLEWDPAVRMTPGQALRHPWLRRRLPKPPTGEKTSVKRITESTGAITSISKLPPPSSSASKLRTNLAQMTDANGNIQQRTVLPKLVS", "source_text": "as §1"}, "[2]": {"molecular_target": "T6, RSK3(Kin.Dom.1-N-terminal) (Homo sapiens, UniProt Q15349)", "T6 construct": "gene RPS6KA2; Kin.Dom.1-N-terminal", "source_text": "as §1"}, "YSK1": {"molecular_target": "T7, YSK1 (Homo sapiens, UniProt O00506)", "T7 construct": "gene STK25", "source_text": "as §1"}, "KIT(L576P)": {"molecular_target": "KIT(L576P) (Homo sapiens, UniProt P10721, L576P)", "source_text": "as §1"}, "PIP5K2B": {"molecular_target": "T8, PIP5K2B (Homo sapiens, UniProt P78356)", "T8 construct": "gene PIP4K2B", "source_text": "as §1"}}}
{"smiles": "Cn1c(=O)[nH]c2ccc(-c3cccc(C(=O)NC4CCn5ccnc5C4)c3)cc21", "note": "(stereo not drawn) [Z36-MP5]", "values": [{"measurement": "remaining binding at 1 µM", "setting": "LATS2", "value": 95, "unit": "%"}, {"measurement": "remaining binding at 1 µM", "setting": "FAK", "value": 88, "unit": "%"}, {"measurement": "remaining binding at 1 µM", "setting": "BRSK2", "value": 100, "unit": "%"}, {"measurement": "remaining binding at 1 µM", "setting": "PYK2", "value": 93, "unit": "%"}, {"measurement": "remaining binding at 1 µM", "setting": "CSNK2A1", "value": 61, "unit": "%"}, {"measurement": "remaining binding at 1 µM", "setting": "ADCK4", "value": 64, "unit": "%"}, {"measurement": "remaining binding at 1 µM", "setting": "ALK(L1196M)", "value": 78, "unit": "%"}, {"measurement": "remaining binding at 1 µM", "setting": "MYLK", "value": 81, "unit": "%"}, {"measurement": "remaining binding at 1 µM", "setting": "CSK", "value": 98, "unit": "%"}, {"measurement": "remaining binding at 1 µM", "setting": "TRKA", "value": 67, "unit": "%"}, {"measurement": "remaining binding at 1 µM", "setting": "SGK3", "value": 60, "unit": "%"}, {"measurement": "remaining binding at 1 µM", "setting": "WNK1", "value": 59, "unit": "%"}, {"measurement": "remaining binding at 1 µM", "setting": "ROCK2", "value": 61, "unit": "%"}, {"measurement": "remaining binding at 1 µM", "setting": "FRK", "value": 100, "unit": "%"}, {"measurement": "remaining binding at 1 µM", "setting": "BLK", "value": 100, "unit": "%"}, {"measurement": "remaining binding at 1 µM", "setting": "WNK2", "value": 63, "unit": "%"}, {"measurement": "remaining binding at 1 µM", "setting": "[1]", "value": 79, "unit": "%"}, {"measurement": "remaining binding at 1 µM", "setting": "SLK", "value": 100, "unit": "%"}, {"measurement": "remaining binding at 1 µM", "setting": "CAMKK2", "value": 51, "unit": "%"}, {"measurement": "remaining binding at 1 µM", "setting": "DYRK2", "value": 84, "unit": "%"}, {"measurement": "remaining binding at 1 µM", "setting": "[2]", "value": 93, "unit": "%"}, {"measurement": "remaining binding at 1 µM", "setting": "YSK1", "value": 98, "unit": "%"}, {"measurement": "remaining binding at 1 µM", "setting": "KIT(L576P)", "value": 74, "unit": "%"}, {"measurement": "remaining binding at 1 µM", "setting": "PIP5K2B", "value": 54, "unit": "%"}]}
